In patent publication US8906904B2, “Alkoxy pyrazoles as soluble guanylate cyclase activators” (Boehringer Ingelheim International GmbH, priority 2012, dated 2014):

How the values were obtained:
[1] = target: T1, human soluble guanylate cyclase alpha 1 and beta 1 subunits (sGC) (Homo sapiens, UniProt Q02108+Q02153); experiment: sGC cellular activator assay (cGMP, HTRF); assay type: cell-based; conditions: CHO cells stably expressing human sGC alpha 1/beta 1, preincubated with 40 microM ODQ; cGMP readout; assay run with and without 50% human serum, Table 2 does not say which
T1 construct: expressed in transfected cells; host or cells: Chinese hamster ovary (CHO) cells, stably transfected
T1 sequence (Q02108 1-690): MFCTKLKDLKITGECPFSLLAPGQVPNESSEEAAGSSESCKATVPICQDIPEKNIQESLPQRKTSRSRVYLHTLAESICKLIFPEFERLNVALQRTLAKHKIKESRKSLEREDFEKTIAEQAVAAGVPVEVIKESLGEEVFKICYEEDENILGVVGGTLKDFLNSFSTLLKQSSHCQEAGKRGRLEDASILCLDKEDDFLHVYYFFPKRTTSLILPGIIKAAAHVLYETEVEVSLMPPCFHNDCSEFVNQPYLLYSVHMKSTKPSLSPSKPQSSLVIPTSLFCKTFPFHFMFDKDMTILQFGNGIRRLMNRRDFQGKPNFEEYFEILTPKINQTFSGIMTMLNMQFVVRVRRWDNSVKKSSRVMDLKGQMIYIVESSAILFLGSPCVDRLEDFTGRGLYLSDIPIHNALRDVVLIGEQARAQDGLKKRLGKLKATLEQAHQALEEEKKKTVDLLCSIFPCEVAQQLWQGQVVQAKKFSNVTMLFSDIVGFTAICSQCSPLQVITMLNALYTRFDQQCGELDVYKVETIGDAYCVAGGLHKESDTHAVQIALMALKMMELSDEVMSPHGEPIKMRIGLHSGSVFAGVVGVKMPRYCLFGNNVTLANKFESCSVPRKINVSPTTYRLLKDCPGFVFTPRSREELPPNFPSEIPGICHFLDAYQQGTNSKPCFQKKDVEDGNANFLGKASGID
T1 sequence (Q02153 1-619): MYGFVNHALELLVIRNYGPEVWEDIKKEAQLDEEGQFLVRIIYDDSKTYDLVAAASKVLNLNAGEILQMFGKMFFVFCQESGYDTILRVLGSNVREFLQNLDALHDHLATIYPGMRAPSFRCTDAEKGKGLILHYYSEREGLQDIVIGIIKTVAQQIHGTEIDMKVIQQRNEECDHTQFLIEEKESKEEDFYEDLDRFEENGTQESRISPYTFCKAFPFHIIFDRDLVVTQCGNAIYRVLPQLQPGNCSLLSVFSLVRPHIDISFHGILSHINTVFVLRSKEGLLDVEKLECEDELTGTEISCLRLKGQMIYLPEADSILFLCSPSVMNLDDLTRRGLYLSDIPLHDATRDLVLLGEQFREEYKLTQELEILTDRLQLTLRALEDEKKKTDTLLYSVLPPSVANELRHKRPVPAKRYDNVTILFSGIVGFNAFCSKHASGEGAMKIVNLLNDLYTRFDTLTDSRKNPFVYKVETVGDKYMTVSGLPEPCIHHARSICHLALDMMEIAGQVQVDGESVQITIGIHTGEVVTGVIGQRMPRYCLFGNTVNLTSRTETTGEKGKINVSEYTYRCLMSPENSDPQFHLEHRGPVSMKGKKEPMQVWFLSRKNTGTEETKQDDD
How it was run: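 First, CHO-sGC (human α1β1) cells get 1 h ODQ at 40 microM with IBMX and 0.1% BSA. Finally, cGMP is quantified by HTRF and EC50 computed.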

[2] = human liver microsome (HLM) metabolic stability assay; assay type: in vitro ADME; conditions: human liver microsomes; % hepatic blood flow calculated from t1/2
How it was run: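 Compounds at 1 uM incubated with human liver microsomes plus NADPH at 37° C., sampled at 0, 5, 15, 30 and 60 min into cold acetonitrile and quantified by LC/MS/MS. t½ from the slope of ln % remaining vs time; CLint, CLh and % Qh derived from it (n=1).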

Row | EC50 [1] [nM] | HLM (% Qh) [2] [% Qh] | SMILES
1 | 180 | <24 | CCOc1c(C(=O)O)cnn1-c1cccc(-c2cccc(C)c2OCc2ccc3c(c2)CCN(C(C)CS(C)(=O)=O)C3)n1 (stereo not drawn) [Compound 70]
2 | 11 | <24 | Cc1cccc(-c2cccc(-n3ncc(C(=O)O)c3OC(C)C)n2)c1OCc1ccc2c(c1)CCN(C1CCC(F)(F)CC1)C2 [Compound 2]
3 | 39 | <24 | Cc1cccc(-c2cccc(-n3ncc(C(=O)O)c3OC(C)C)n2)c1OCc1ccc2c(c1)CCN(C1CCOCC1)C2 [Compound 1, 5-isopropoxy-1-(6-{3-methyl-2-[2-(tetrahydro-pyran-4-yl)-1,2,3,4-tetrahydro-isoquinolin-6-ylmethoxy]-phenyl}-pyridin-2-yl)-1H-pyrazole-4-carboxylic acid]
4 | 130 | 26 | Cc1cccc(-c2cccc(-n3ncc(C(=O)O)c3OC(C)C)n2)c1OCc1ccc2c(c1C)CCN(C(C)C)C2 [Compound 43]
5 | 20 | <24 | COc1c(C(=O)O)cnn1-c1cccc(-c2cccc(C)c2OCc2ccc3c(c2)CCN(CC2COCCO2)C3)n1 (stereo not drawn) [Compound 92]
6 | 110 | <24 | CCOc1c(C(=O)O)cnn1-c1cccc(-c2cccc(C)c2OCc2ccc3c(c2)CCN(C2CCOC(C)(C)C2)C3)n1 (stereo not drawn) [Compound 66]
7 | 11 | <24 | Cc1cccc(-c2cccc(-n3ncc(C(=O)O)c3OC(C)C)n2)c1OCc1ccc2c(c1)CCN(CC1CC(F)(F)C1)C2 [Compound 4, 1-(6-{2-[2-(3,3-difluoro-cyclobutylmethyl)-1,2,3,4-tetrahydro-isoquinolin-6-ylmethoxy]-3-methyl-phenyl}-pyridin-2-yl)-5-isopropoxy-1H-pyrazole-4-carboxylic acid]
8 | 10 | <24 | COc1c(C(=O)O)cnn1-c1cccc(-c2cccc(C)c2OCc2ccc3c(c2C)CCN(CC(C)(C)C)C3)n1 [Compound 30]
9 | 97 | <24 | COc1c(C(=O)O)cnn1-c1cccc(-c2cccc(C)c2OCc2ccc3c(c2)CCN(CC(C)(C)O)C3)n1 [Compound 33, 1-(6-{2-[2-(2-hydroxy-2-methyl-propyl)-1,2,3,4-tetrahydro-isoquinolin-6-ylmethoxy]-3-methyl-phenyl}-pyridin-2-yl)-5-methoxy-1H-pyrazole-4-carboxylic acid]
10 | 62 | <24 | Cc1cccc(-c2cccc(-n3ncc(C(=O)O)c3OC(C)C)n2)c1OCc1ccc2c(c1)CCN(CC1(C)COC1)C2 [Compound 40]
11 | 320 | <24 | CCOc1c(C(=O)O)cnn1-c1cccc(-c2cccc(C)c2OCc2ccc3c(c2)CCN(C2CC(C)(C)OC(C)(C)C2)C3)n1 [Compound 67]
12 | 26 | <24 | Cc1cccc(-c2cccc(-n3ncc(C(=O)O)c3OC(C)C)n2)c1OCc1ccc2c(c1C)CCN(C1COC1)C2 [Compound 45]
13 | 38 | <24 | Cc1cccc(-c2cccc(-n3ncc(C(=O)O)c3OC(C)C)n2)c1OCc1ccc2c(c1C)CCN(CC1(C)COC1)C2 [Compound 46]
14 | 22 | <24 | COc1c(C(=O)O)cnn1-c1cccc(-c2cccc(C)c2OCc2ccc3c(c2)CN(C2COC2)C3)n1 [Compound 85]
15 | 150 | 76 | COc1c(C(=O)O)cnn1-c1cccc(-c2cccc(C)c2OCc2ccc3c(c2)C(C)(C)CN(C2CCOCC2)C3)n1 [Compound 89]
16 | 110 | <24 | COc1c(C(=O)O)cnn1-c1cccc(-c2cc(F)cc(F)c2OCc2ccc3c(c2)CCN(C2CCOCC2)C3)n1 [Compound 53]
17 | 9 | <24 | COc1c(C(=O)O)cnn1-c1cccc(-c2cccc(C)c2OCc2ccc3c(c2)CCN(C2CCC(F)(F)CC2)C3)n1 [Compound 5]
18 | 59 | <24 | COc1c(C(=O)O)cnn1-c1cccc(-c2cccc(C)c2OCc2ccc3c(c2)CCN(C2CCOC(C)(C)C2)C3)n1 (stereo not drawn) [Compound 61]

Row | EC50 [1] [nM] | HLM (% Qh) [2] [% Qh] | SMILES
19 | 27 | <24 | Cc1cccc(-c2cccc(-n3ncc(C(=O)O)c3OC(C)C)n2)c1OCc1ccc2c(c1)CCN(C1CCOC1)C2 (stereo not drawn) [Compound 41]
20 | 55 | <24 | COc1c(C(=O)O)cnn1-c1cccc(-c2cccc(C)c2OCc2ccc3c(c2)CCN(C2CC4CCC(C2)O4)C3)n1 (stereo not drawn) [Compound 87]
21 | 67 | <24 | CCOc1c(C(=O)O)cnn1-c1cccc(-c2cccc(C)c2OCc2ccc3c(c2)CCN(C2CCOC2C)C3)n1 (stereo not drawn) [Compound 71]
22 | 45 | <24 | CCOc1c(C(=O)O)cnn1-c1cccc(-c2cccc(C)c2OCc2ccc3c(c2)CCN(C2CCOCC2F)C3)n1 (stereo not drawn) [Compound 94]
23 | 24 | <24 | Cc1cccc(-c2cccc(-n3ncc(C(=O)O)c3OC(C)C)n2)c1OCc1ccc2c(c1)CCN(C1CCCOC1)C2 (stereo not drawn) [Compound 42]
24 | 110 | <24 | CCOc1c(C(=O)O)cnn1-c1cccc(-c2cccc(Cl)c2OCc2ccc3c(c2)CCN(C2CCOCC2)C3)n1 [Compound 54]
25 | 82 | <24 | COc1c(C(=O)O)cnn1-c1cccc(-c2cccc(F)c2OCc2ccc3c(c2)CCN(C2CCOCC2)C3)n1 [Compound 63]
26 | 37 | <24 | COc1c(C(=O)O)cnn1-c1cccc(-c2cccc(C(F)(F)F)c2OCc2ccc3c(c2)CN(C2CCOCC2)C3)n1 [Compound 93]
27 | 65 | <24 | CCOc1c(C(=O)O)cnn1-c1cccc(-c2cccc(C)c2OCc2ccc3c(c2)CCN(CC2(C)COC2)C3)n1 [Compound 34]
28 | 54 | 48 | CCOc1c(C(=O)O)cnn1-c1cccc(-c2cccc(C)c2OCc2ccc3c(c2)CCN(C(C)CF)C3)n1 (stereo not drawn) [Compound 49, 5-ethoxy-1-(6-{2-[2-(2-fluoro-1-methyl-ethyl)-1,2,3,4-tetrahydro-isoquinolin-6-ylmethoxy]-3-methyl-phenyl}-pyridin-2-yl)-1H-pyrazole-4-carboxylic acid]
29 | 110 | <24 | CCOc1c(C(=O)O)cnn1-c1cccc(-c2cccc(Cl)c2OCc2ccc3c(c2)CCN(C2CCOC2)C3)n1 (stereo not drawn) [Compound 55]
30 | 9 | <24 | COc1c(C(=O)O)cnn1-c1cccc(-c2cccc(C(F)(F)F)c2OCc2ccc3c(c2C)CCN(C2CCOCC2)C3)n1 [Compound 84]
31 | 56 | <24 | CCOc1c(C(=O)O)cnn1-c1cccc(-c2cccc(C)c2OCc2ccc3c(c2)CCN(C2CC(C)OC(C)C2)C3)n1 (stereo not drawn) [Compound 65]
32 | 250 | 36 | COc1c(C(=O)O)cnn1-c1cccc(-c2cccc(C)c2OCc2ccc3c(c2)CCN(C2CC(C)(C)OC(C)(C)C2)C3)n1 [Compound 73]
33 | 23 | 31 | COc1c(C(=O)O)cnn1-c1cccc(-c2cccc(C)c2OCc2ccc3c(c2)CCN(C2C4CCOC4C2(C)C)C3)n1 (stereo not drawn) [Compound 75]
34 | 31 | <24 | CCOc1c(C(=O)O)cnn1-c1cccc(-c2cccc(C)c2OCc2ccc3c(c2)CCN(C2CCOCC2)C3)n1 [Compound 77]
35 | 17 | <24 | Cc1cccc(-c2cccc(-n3ncc(C(=O)O)c3OC(C)C)n2)c1OCc1ccc2c(c1)CCN(C1COC1)C2 [Compound 39]
36 | 72 | <24 | CCOc1c(C(=O)O)cnn1-c1cccc(-c2cccc(Cl)c2OCc2ccc3c(c2)CCN(C2COC2)C3)n1 [Compound 51]
